How the values were obtained:
Botrytis cinerea = assay: In vivo test on Botrytis cinerea (gherkin grey mould) on gherkin plants; details: 330 ppm; comparison compounds of WO 01/11965
Protocol: (§1) The active ingredients tested are prepared by homogenization in a mixture of DMSO (dimethylsulfoxid)/acetone/tween/water. This suspension is then diluted with water to obtain the desired active material concentration.
Gherkin plants (Petit Vert de Paris variety) in starter cups, sown on a 50/50 peat soil-pozzolana substrate and grown at 18-20° C., are treated at the cotyledon Z11 stage by spraying with the aqueous suspension described above. Plants, used as controls, are treated with an aqueous solution not containing the active material.
After 24 hours, the plants are contaminated by depositing drops of an aqueous suspension of Botrytis cinerea spores (150,000 spores per ml) on upper surface of the leaves. The spores are collected from a 15-day-old culture and are suspended in a nutrient solution composed of: • 20 g/L of gelatin • 50 g/L of cane sugar • 2 g/L of NH4NO3 • 1 g/L of KH2PO4
The contaminated gherkin plants are settled for 5/7 days in a climatic room at 15-11° C. (day/night) and at 80% relative humidity.
Grading is carried out 5/7 days after the contamination, in comparison with the control plants.

Alternaria brassicae = assay: In vivo test on Alternaria brassicae (leaf spot of crucifers) on radish plants; details: 330 ppm; comparison compounds of WO 01/11965
Protocol: as §1
Radish plants (Pernot variety) in starter cups, sown on a 50/50 peat soil-pozzolana substrate and grown at 18-20° C., are treated at the cotyledon stage by spraying with the aqueous suspension described above.
Plants, used as controls, are treated with an aqueous solution not containing the active material.
After 24 hours, the plants are contaminated by spraying them with an aqueous suspension of Alternaria brassicae spores (40,000 spores per cm^3). The spores are collected from a 12-13-day-old culture.
The contaminated radish plants are incubated for 6-7 days at about 18° C., under a humid atmosphere.
Grading is carried out 6 to 7 days after the contamination, in comparison with the control plants.

Peronospora parasitica = assay: Efficacy against Peronospora parasitica; format: in vivo; details: 330 ppm; comparison compound of WO 01/11965

SMILES: O=C(Cc1cccs1)NCc1ncc(C(F)(F)F)cc1Cl [compound 101, N-{[3-chloro-5-(trifluoromethyl)-2-pyridinyl]methyl}-5-thienylacetamide]
- effectiveness on Botrytis cinerea (Botrytis cinerea): no efficacy
- effectiveness on Alternaria brassicae (Alternaria brassicae): poor efficacy
- efficacy against Peronospora parasitica (Peronospora parasitica): no efficacy

SMILES: CCNC(=O)C(Cc1ncc(C(F)(F)F)cc1Cl)NC(=O)c1ccccc1 (stereo not drawn) [compound 304, N-{1-ethylcarbamoyl-2-[3-chloro-5-(trifluoromethyl)-2-pyridinyl]-ethyl}-benzamide]
- effectiveness on Botrytis cinerea (Botrytis cinerea): zero effectiveness

SMILES: CCNC(=O)C(Cc1ncc(C(F)(F)F)cc1Cl)NC(=O)c1ccc(Cl)cc1 (stereo not drawn) [compound 306, N-{1-ethylcarbamoyl-2-[3-chloro-5-(trifluoromethyl)-2-pyridinyl]ethyl}-4-chlorobenzamide]
- effectiveness on Botrytis cinerea (Botrytis cinerea): zero effectiveness

SMILES: CCNC(=O)C(Cc1ncc(C(F)(F)F)cc1Cl)NC(=O)c1cccc([N+](=O)[O-])c1 (stereo not drawn) [compound 307, N-{1-ethylcarbamoyl-2-[3-chloro-5-(trifluoromethyl)-2-pyridinyl]ethyl}-3-nitrobenzamide]
- effectiveness on Botrytis cinerea (Botrytis cinerea): zero effectiveness
- effectiveness on Alternaria brassicae (Alternaria brassicae): poor effectiveness

SMILES: CCNC(=O)C(Cc1ncc(C(F)(F)F)cc1Cl)NC(=O)c1ccccc1Br (stereo not drawn) [compound 310, N-{1-ethylcarbamoyl-2-[3-chloro-5-(trifluoromethyl)-2-pyridinyl]ethyl}-2-bromobenzamide]
- effectiveness on Botrytis cinerea (Botrytis cinerea): zero effectiveness

SMILES: CNC(=O)C(Cc1ncc(C(F)(F)F)cc1Cl)NC(=O)c1ccccc1 (stereo not drawn) [compound 314, N-{1-methylcarbamoyl-2-[3-chloro-5-(trifluoromethyl)-2-pyridinyl]ethyl}-benzamide]
- effectiveness on Botrytis cinerea (Botrytis cinerea): zero effectiveness

SMILES: CNC(=O)C(Cc1ncc(C(F)(F)F)cc1Cl)NC(=O)c1ccc(OC)cc1 (stereo not drawn) [compound 315, N-{1-methylcarbamoyl-2-[3-chloro-5-(trifluoromethyl)-2-pyridinyl]ethyl}-4-methoxybenzamide]
- effectiveness on Botrytis cinerea (Botrytis cinerea): zero effectiveness

SMILES: CNC(=O)C(Cc1ncc(C(F)(F)F)cc1Cl)NC(=O)c1ccc(-c2ccccc2)cc1 (stereo not drawn) [compound 316, N-{1-methylcarbamoyl-2-[3-chloro-5-(trifluoromethyl)-2-pyridinyl]-ethyl}-4-phenylbenzamide]
- effectiveness on Botrytis cinerea (Botrytis cinerea): zero effectiveness
- effectiveness on Alternaria brassicae (Alternaria brassicae): poor effectiveness

Reference: patent US7932396B2, “2-pyridinylcycloalkylbenzamide derivatives and their use as fungicides” (Bayer Cropscience AG, priority 2005, dated 2011)
